Laboratory results from patent US5668134A, “Method for preventing or reducing photosensitivity and/or phototoxicity reactions to medications” (priority 1994, dated 1997).
“And” between values parts separate entries of the source, which are not always exact repeats. Equal entries are not always repeated. Structures can show the parent of a compound that is named as a salt. Where two headings read alike, the source gives them in different places.

How the values were obtained:
[1] = test system: uncomplicated urinary tract infection; test: Example 4: evening dosing in uncomplicated urinary tract infection; type: in vivo, human; conditions: 200 mg at night for 3 nights
Experimental: Patients with uncomplicated urinary tract infection were randomized to receive lomefloxacin HCl 200 mg taken at night for 3 nights and trimethoprim in a double-blind study.

Enterobacter cloacae = test: Activity in vitro and in clinical infections; type: cell-based
Escherichia coli = test: Activity in vitro and in clinical infections; type: cell-based
[2] = test system: skin of healthy volunteers; test: Example 5: severity of radiation-induced photoreactions (edema or blisters)
Experimental: The number of skin patches with edema, or local swelling of the skin surface, were also counted. MEDs were measured separately for UVA and UVB radiation, and for UVA radiation alone. The baseline MED was defined in the manner described hereinabove. The 24 hour evaluation was allowed to be performed in the morning of Study Day 1. Severity of reactions causing edema and/or blisters were graded under the following grading system:
Severity was assessed by comparing the numbers of subjects with responses graded as 2 (edema) or 3 (blisters).

Citrobacter diversus = test: Activity in vitro and in clinical infections; type: cell-based
[3] = test system: bacterial enzyme DNA gyrase; test: Interference with bacterial DNA gyrase; type: biochemical
skin = conditions: humans and animals; cited from earlier work
[4] = test system: skin of healthy volunteers; test: Example 5: regression of delayed MEDUVA on plasma concentration
Text: The relationship between plasma concentration at time of irradiation and delayed MEDUVA was explored using regression analysis by testing the equality of the slopes of the regression of delayed MEDUVA on plasma concentration, obtaining estimates of the parameters of the regression line, and determining the correlation coefficient.

[5] = Pharmacokinetics of lomefloxacin in humans (general description); type: in vivo, human
Klebsiella pneumoniae = test: Activity in vitro and in clinical infections; type: cell-based
healthy male volunteers = conditions: lomefloxacin 400 mg BID, ciprofloxacin 750 mg BID, 14 days, UVA and UVA/UVB
Experimental: This study was a single center, open label, multiple does, parallel, randomized study in healthy male volunteers.
Drug administration began on day three. Single dermatological sites were chosen on each of the subjects to be the site which was to be evaluated over time. Twenty joules of radiation were administered to these sites on day 1, day 6 and day 16. Also, graded UVA-UVB exposure was performed on days 2, 7 and 16. The dermatological responses were scored at 1, 24 and 48 hours after each UVA exposure and at 24 hours after the combined UVA-UVB exposure. The definitions which were employed in interpreting this study were that photosensitivity was to be assessed by exposure duration associated with the smallest dermatological response score above zero, which was defined as the minimal erythrogenic dose after the UVA-UVB exposure. The photosensitivity and/or phototoxicity reaction was taken by definition to be an increase of equal to or greater than 1 unit in what was defined as a dermatological response over baseline values after the UVA exposure.

[6] = test system: Staphylococcus saprophyticus; test: Activity in vitro and in clinical infections; type: cell-based
[7] = Tissue or fluid to plasma ratios and blister fluid distribution after oral administration; type: in vivo, human; conditions: for Kp: oral, read-out: Mean Tissue or Fluid to Plasma Ratio
Text: The following are mean tissue or fluid to plasma ratios of lomefloxacin following oral administration.
Equilibrium between the serum and blister fluid is achieved approximately two hours postdose, with a partition coefficient of 1.0 (blister fluid:serum). The concentration vs. time profiles in blister fluid following single dose administration are similar to those obtained at steady-state during a once daily dosing regimen.

patients = test: Example 3: multicenter comparative safety and efficacy study, photosensitivity; type: in vivo, human; conditions: 400 mg x 7 days
Experimental: A double blind, randomized, parallel group, three-arm clinical study concerning the photosensitivity reactions caused by lomefloxacin HCl was the multicenter comparative safety and efficacy study which was conducted in Sweden. 400 mg of lomefloxacin HCl was given once a day (q.d.) for either three days or seven days. 703 patients were enrolled in this study, before newly-raised awareness of photosensitivity reactions associated with lomefloxacin HCl.
However, about one year into the study, on Feb. 2, 1989, a letter was sent out to each of the study investigators regarding the possible risks of lomefloxacin HCl photosensitivity reactions. This information was again communicated to the study investigators at an Investigator's Meeting which was held on Jun. 8, 1989. The above-describedwarnings to study investigators apparently may have not been shared with the patients taking part in the study because photosensitivity rates for this study were reported as for […] as 10% for lomefloxacin HCl 400 mg×7 days.

[8] = UVA & UVB, a.m., 0 h post-radiation
[9] = UVA & UVB, a.m., 3 h post-radiation
[10] = UVA & UVB, a.m., 6 h post-radiation
[11] = UVA & UVB, a.m., 24 h post-radiation
[12] = UVA & UVB, a.m., 48 h post-radiation
[13] = UVA & UVB, a.m., 72 h post-radiation
[14] = UVA & UVB, p.m., 0 h post-radiation
[15] = UVA & UVB, p.m., 3 h post-radiation
[16] = UVA & UVB, p.m., 6 h post-radiation
[17] = UVA & UVB, p.m., 24 h post-radiation
[18] = UVA & UVB, p.m., 48 h post-radiation
[19] = UVA & UVB, p.m., 72 h post-radiation

## CCn1cc(C(=O)O)c(=O)c2cc(F)c(N3CCNC(C)C3)c(F)c21 (racemic) [lomefloxacin HCl, monohydrochloride salt of (±)-1-ethyl-6,8-difluoro-1,4-dihydro-7-(3-methyl-1-piperazinyl)-4-oxo-3-quinolinecarboxylic acid]
[1]
  overall incidence of adverse events: 18%
  photosensitivity reactions: no photosensitivity reactions reported
[1]; 7-9 days posttreatment
  clinical success in evaluable patients: 98.1%
Enterobacter cloacae
  activity against most strains: active against most strains
Escherichia coli
  activity against most strains: active against most strains
[2]; [8]
  NUMBER OF SUBJECTS WITH SCORE >= 2, COUNT: 0 subjects
  SUBJECTS WITH SCORE >= 2, PERCENT: 0.00%
[2]; [9]
  NUMBER OF SUBJECTS WITH SCORE >= 2, COUNT: 0 subjects
  SUBJECTS WITH SCORE >= 2, PERCENT: 0.00%
[2]; [10]
  NUMBER OF SUBJECTS WITH SCORE >= 2, COUNT: 2 subjects
  SUBJECTS WITH SCORE >= 2, PERCENT: 15.38%
[2]; [11]
  NUMBER OF SUBJECTS WITH SCORE >= 2, COUNT: 0 subjects
  SUBJECTS WITH SCORE >= 2, PERCENT: 0.00%
[2]; [12]
  NUMBER OF SUBJECTS WITH SCORE >= 2, COUNT: 0 subjects
  SUBJECTS WITH SCORE >= 2, PERCENT: 0.00%
[2]; [13]
  NUMBER OF SUBJECTS WITH SCORE >= 2, COUNT: 0 subjects
  SUBJECTS WITH SCORE >= 2, PERCENT: 0.00%
[2]; [14]
  NUMBER OF SUBJECTS WITH SCORE >= 2, COUNT: 0 subjects
  SUBJECTS WITH SCORE >= 2, PERCENT: 0.00%
[2]; [15]
  NUMBER OF SUBJECTS WITH SCORE >= 2, COUNT: 0 subjects
  SUBJECTS WITH SCORE >= 2, PERCENT: 0.00%
[2]; [16]
  NUMBER OF SUBJECTS WITH SCORE >= 2, COUNT: 0 subjects
  SUBJECTS WITH SCORE >= 2, PERCENT: 0.00%
[2]; [17]
  NUMBER OF SUBJECTS WITH SCORE >= 2, COUNT: 1 subjects
  SUBJECTS WITH SCORE >= 2, PERCENT: 7.69%
[2]; [18]
  NUMBER OF SUBJECTS WITH SCORE >= 2, COUNT: 0 subjects
  SUBJECTS WITH SCORE >= 2, PERCENT: 0.00%
[2]; [19]
  NUMBER OF SUBJECTS WITH SCORE >= 2, COUNT: 0 subjects
  SUBJECTS WITH SCORE >= 2, PERCENT: 0.00%
[2]; UVA, a.m., 0 h post-radiation
  NUMBER OF SUBJECTS WITH SCORE >= 2, COUNT: 1 subjects
  SUBJECTS WITH SCORE >= 2, PERCENT: 7.69%
[2]; UVA, a.m., 3 h post-radiation
  NUMBER OF SUBJECTS WITH SCORE >= 2, COUNT: 6 subjects
  SUBJECTS WITH SCORE >= 2, PERCENT: 46.15%
[2]; UVA, a.m., 6 h post-radiation
  NUMBER OF SUBJECTS WITH SCORE >= 2, COUNT: 9 subjects
  SUBJECTS WITH SCORE >= 2, PERCENT: 69.23% and 69%
[2]; UVA, a.m., 24 h post-radiation
  NUMBER OF SUBJECTS WITH SCORE >= 2, COUNT: 5 subjects
  SUBJECTS WITH SCORE >= 2, PERCENT: 38.46%
[2]; UVA, a.m., 48 h post-radiation
  NUMBER OF SUBJECTS WITH SCORE >= 2, COUNT: 2 subjects
  SUBJECTS WITH SCORE >= 2, PERCENT: 15.38%
[2]; UVA, a.m., 72 h post-radiation
  NUMBER OF SUBJECTS WITH SCORE >= 2, COUNT: 0 subjects
  SUBJECTS WITH SCORE >= 2, PERCENT: 0.00%
[2]; UVA, p.m., 0 h post-radiation
  NUMBER OF SUBJECTS WITH SCORE >= 2, COUNT: 0 subjects
  SUBJECTS WITH SCORE >= 2, PERCENT: 0.00%
[2]; UVA, p.m., 3 h post-radiation
  NUMBER OF SUBJECTS WITH SCORE >= 2, COUNT: 0 subjects
  SUBJECTS WITH SCORE >= 2, PERCENT: 0.00%
[2]; UVA, p.m., 6 h post-radiation
  NUMBER OF SUBJECTS WITH SCORE >= 2, COUNT: 0 subjects
  SUBJECTS WITH SCORE >= 2, PERCENT: 0.00%
[2]; UVA, p.m., 24 h post-radiation
  NUMBER OF SUBJECTS WITH SCORE >= 2, COUNT: 0 subjects
  SUBJECTS WITH SCORE >= 2, PERCENT: 0.00%
[2]; UVA, p.m., 48 h post-radiation
  NUMBER OF SUBJECTS WITH SCORE >= 2, COUNT: 0 subjects
  SUBJECTS WITH SCORE >= 2, PERCENT: 0.00%
[2]; UVA, p.m., 72 h post-radiation
  NUMBER OF SUBJECTS WITH SCORE >= 2, COUNT: 0 subjects
  SUBJECTS WITH SCORE >= 2, PERCENT: 0.00%
Citrobacter diversus
  activity against most strains: active against most strains
[3]
  mechanism of bactericidal action: interference with the activity of the bacterial enzyme DNA gyrase
skin
  photoreactions of quinolones: dose-dependent, drug-induced, UVA required photosensitivity reaction
[4]; in vivo
  correlation coefficient, plasma concentration vs delayed MEDUVA: -0.72
[4]; p<0.001
  slope of regression of delayed MEDUVA on plasma concentration: -4.99
[5]; 400 mg oral
  drug concentrations in many body tissues and fluids versus systemic circulation: comparable to or higher than drug concentrations in systemic circulation
[5]; healthy volunteers
  absorption rate: rapidly absorbed
  time to steady-state: by the end of the second day of dosing
[5]; human urine
  number of metabolites identified: 5 metabolites
[5]; human, feces, oral dose, read-out: unchanged drug recovered in the feces
  dose excreted: ~10%
[5]; human, serum, healthy volunteers, after dosing, read-out: time to peak serum concentrations
  Tmax: 1 to 2 h
[5]; in vivo
  metabolism: minimally metabolized
  route of elimination: primarily eliminated by renal excretion
[5]; orally-administered
  oral absorption: one hundred
Klebsiella pneumoniae
  activity against most strains: active against most strains
Healthy male volunteers
  rate of photosensitivity reactions: 64%
[6]
  activity against most strains: active against most strains
[7]; Blister Fluid
  Kp: 1
[7]; Bronchial mucosa
  Kp: 2.1
[7]; Bronchial secretions
  Kp: 0.6
[7]; Prostatic tissue
  Kp: 2
[7]; Sputum
  Kp: 1.3
[7]; Urine
  Kp: 140
[7]; inflammatory exudate fluid of blisters
  terminal half-life in blister fluid versus serum: same terminal half-life
[7]; postdose
  time to equilibrium between serum and blister fluid: approximately two
patients
  photosensitivity rate: 10%
